In US11225484B2, “Substituted octahydropyrrolo[3,4-b]pyrroles as antagonists of the muscarinic acetylcholine receptor M4” (Vanderbilt University, priority 2017, dated 2022):

Tests used:
Human M4 = target: T1, Human M4 (Homo sapiens, UniProt P08173); assay: mAChR M4 cell-based functional assay (calcium flux, human M4/Gqi5/CHO cells); conditions: for remaining activity at 30 µM: CHO, % ACh maximum at 30 μM, read-out: Emin (%) human M4; for IC50: antagonist mode, decrease of the response to an EC80 concentration of acetylcholine, CHO-K1 cells with Gqi5
T1 construct: expressed in transfected cells; host or cells: CHO-K1 (ATCC), co-transfected with chimeric G protein Gqi5
T1 sequence (P08173 1-479): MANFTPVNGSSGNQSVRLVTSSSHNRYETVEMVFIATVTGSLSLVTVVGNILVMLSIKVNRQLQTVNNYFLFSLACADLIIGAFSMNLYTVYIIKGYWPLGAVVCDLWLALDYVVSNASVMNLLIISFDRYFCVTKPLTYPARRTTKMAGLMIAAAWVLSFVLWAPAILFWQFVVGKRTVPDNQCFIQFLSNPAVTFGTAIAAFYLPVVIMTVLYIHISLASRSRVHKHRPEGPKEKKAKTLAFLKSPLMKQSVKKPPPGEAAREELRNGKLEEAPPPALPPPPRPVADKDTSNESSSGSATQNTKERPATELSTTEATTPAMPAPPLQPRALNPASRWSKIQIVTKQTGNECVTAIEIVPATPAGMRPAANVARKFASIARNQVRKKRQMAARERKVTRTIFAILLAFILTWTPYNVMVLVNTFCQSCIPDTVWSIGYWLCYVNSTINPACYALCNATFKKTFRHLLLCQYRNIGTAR
Protocol: (§1) Human or rat M4 cDNA, along with the chimeric G protein Gqi5, were transfected into Chinese hamster ovary (CHO-K1) cells purchased from the American Type Culture Collection using Lipofectamine2000. M4/Gqi5/CHO cells were grown in Ham's F-12 medium containing 10% heat-inactivated fetal bovine serum (FBS), 20 mM HEPES, 500 μg/mL G418 sulfate, and 200 μg/mL Hygromycin B.
(§2) For high throughput measurement of agonist-evoked increases in intracellular calcium, CHO-K1 cells stably expressing muscarinic receptors were plated in growth medium lacking G418 and hygromycin at 15,000 cells/20 μL/well in Greiner 384-well black-walled, tissue culture (TC)-treated, clear-bottom plates (VWR). Cells were incubated overnight at 37° C. and 5% CO2. The next day, cells were washed using an ELX 405 (BioTek) with assay buffer; the final volume was then aspirated to 20 μL. Next, 20 μL of a 2.3 μM stock of Fluo-4/acetoxymethyl ester (Invitrogen, Carlsbad, Calif.), prepared as a 2.3 mM stock in DMSO and mixed in a 1:1 ratio with 10% (w/v) Pluronic F-127 and diluted in assay buffer, was added to the wells and the cell plates were incubated for 50 min at 37° C. and 5% CO2. Dye was removed by washing with the ELX 405 and the final volume was aspirated to 20 μL. Compound master plates were formatted in a 10 point concentration-response curve (CRC) format (1:3 dilutions) in 100% DMSO with a starting concentration of 10 or 1 mM using a BRAVO liquid handler (Agilent). Test compound CRCs were then transferred to daughter plates (240 nL) using the Echo acoustic plate reformatter (Labcyte, Sunnyvale, Calif.) and then diluted into assay buffer (40 μL) to a 2× stock using a Thermo Fisher Combi (Thermo Fisher Scientific, Waltham, Mass.).
(§3) Calcium flux was measured using the Functional Drug Screening System (FDSS) 6000 or 7000 (Hamamatsu Corporation, Tokyo, Japan) as an increase in the fluorescent static ratio. Compounds were applied to cells (20 μL, 2×) using the automated system of the FDSS at 2 seconds into the protocol and the data were collected at 1 Hz. At 143 s, 10 μL of an EC20 concentration of the muscarinic receptor agonist acetylcholine was added (5×), followed by the addition of 12 μL of an EC80 concentration of acetylcholine at the 268 s time point (5×). Agonist activity was analyzed as a concentration-dependent increase in calcium mobilization upon compound addition. Positive allosteric modulator activity was analyzed as a concentration-dependent increase in the EC20 acetylcholine response. Antagonist activity was analyzed as a concentration-dependent decrease in the EC80 acetylcholine response for the purposes of the tables herein, an IC50 (inhibitory concentration 50) was calculated as a concentration-dependent decrease of the response elicited by an EC80 concentration of acetylcholine, Concentration-response curves were generated using a four-parameter logistical equation in XLFit curve fitting software (IDBS, Bridgewater, N.J.) for Excel (Microsoft, Redmond, Wash.) or Prism (GraphPad Software, Inc., San Diego, Calif.) or the Dotmatics software platform (Dotmatics, Bishop's Stortford, UK).
(§4) Compounds were synthesized as described above. Activity (IC50 and Emin) was determined in the mAChR M4 cell-based functional assay as described above and the data are shown in Table 2. The compound number corresponds to the compound numbers used in Examples 1-3.

Rat M4 = target: T2, Rat M4 (Rattus norvegicus, UniProt P08485); assay: mAChR M4 cell-based functional assay (calcium flux, rat M4/Gqi5/CHO cells); conditions: for remaining activity at 30 µM: CHO, % ACh maximum at 30 μM, read-out: Emin (%) rat M4; for IC50: antagonist mode, decrease of the response to an EC80 concentration of acetylcholine, CHO-K1 cells with Gqi5
T2 construct: expressed in transfected cells; host or cells: CHO-K1 (ATCC), co-transfected with chimeric G protein Gqi5
T2 sequence (P08485 1-478): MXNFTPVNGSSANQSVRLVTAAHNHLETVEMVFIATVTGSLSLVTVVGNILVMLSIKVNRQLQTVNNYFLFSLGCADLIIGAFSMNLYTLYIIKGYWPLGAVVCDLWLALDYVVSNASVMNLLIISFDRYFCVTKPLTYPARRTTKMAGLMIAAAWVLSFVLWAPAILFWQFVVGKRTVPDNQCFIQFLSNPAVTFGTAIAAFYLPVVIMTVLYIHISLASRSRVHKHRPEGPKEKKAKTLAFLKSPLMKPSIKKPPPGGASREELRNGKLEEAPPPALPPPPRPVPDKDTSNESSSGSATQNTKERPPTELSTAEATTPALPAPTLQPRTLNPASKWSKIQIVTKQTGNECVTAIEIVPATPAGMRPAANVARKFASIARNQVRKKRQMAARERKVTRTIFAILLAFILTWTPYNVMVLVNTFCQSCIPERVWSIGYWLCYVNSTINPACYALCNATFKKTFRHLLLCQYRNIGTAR
Protocol: as §1, §2, §3, §4

[1] = tested on: catalepsy induced by the DA receptor antagonist haloperidol; assay: haloperidol-induced catalepsy; assay type: in vivo, mice
Excerpt: Furthermore, haloperidol-induced catalepsy, a model of parkinsonian motor disability, is reduced in M4 knockout mice as compared to wild-type controls. […] The reversal by scopolamine was uncommonly robust and more pronounced than we observe with agents targeting a number of other targets being evaluated for potential antiparkinsonian effects, including metabotropic glutamate (mGlu) receptors mGlu4 or mGlu5, A2A adenosine receptors, and NMDA receptors. […] Taken together with the extensive studies of M4 modulation of basal ganglia and motor function, these studies provide compelling evidence that M4 is the dominant mAChR subtype involved in the antiparkinsonian effects of non-selective mAChR antagonists and provide support for discovery and development of selective M4 antagonists for treatment of neurodegenerative disease such as PD, dystonia, tardive dyskinesia and other movement disorders.

locomotor activity = conditions: M4 knockout mice, but not the other four mAChR subtypes; cited from earlier work

Row | Compound | remaining activity at 30 µM (Human M4) | IC50 (Human M4) | remaining activity at 30 µM (Rat M4) | IC50 (Rat M4) | reduction of haloperidol-induced catalepsy ([1]; M4 KO mice) | reversal of haloperidol-induced catalepsy ([1]; WT mice) | locomotor-activating effects (locomotor activity)
1 | CC/C=C\CCCN1CC2CCN(c3ccc(-c4c(C)cnn4C)nn3)C2C1 (stereo not drawn) [Compound 12, (Z)-1-(6-(1,4-dimethyl-1H-pyrazol-5-yl)pyridazin-3-yl)-5-(hept-4-en-1-yl)octahydropyrrolo[3,4-b]pyrrole] | 15.1% | > 10000 nM | 45.2% | > 10000 nM | – | – | –
2 | CCCCCCN1CC2CCN(c3ccc(-c4c(C)cnn4C)nn3)C2C1 (stereo not drawn) [Compound 13, 1-(6-(1,4-dimethyl-1H-pyrazol-5-yl)pyridazin-3-yl)-5-hexyloctahydropyrrolo[3,4-b]pyrrole] | 7.23% | 2150 nM | 28.4% | > 10000 nM | – | – | –
3 | Cc1cnn(C)c1-c1ccc(N2CCC3CN(CC(c4ccccc4)c4ccccc4)CC32)nn1 (stereo not drawn) [Compound 14, 1-(6-(1,4-dimethyl-1H-pyrazol-5-yl)pyridazin-3-yl)-5-(2,2-diphenylethyl)octahydropyrrolo[3,4-b]pyrrole] | 8.96% | 9190 nM | 48.3% | > 10000 nM | – | – | –
4 | Fc1ccc(Cl)c(-c2ccc(N3CCC4CN(CC56CC7CC(CC(C7)C5)C6)CC43)nn2)c1 (stereo not drawn) [Compound 17, 5-(adamantan-1-ylmethyl)-1-(6-(2-chloro-5-fluorophenyl)pyridazin-3-yl)octahydropyrrolo[3,4-b]pyrrole] | 20.2% | > 10000 nM | 49.1% | > 10000 nM | – | – | –
5 | Fc1ccc(-c2ccc(N3CCC4CN(CC56CC7CC(CC(C7)C5)C6)CC43)nn2)c(Cl)c1 (stereo not drawn) [Compound 18, 5-(adamantan-1-ylmethyl)-1-(6-(2-chloro-4-fluorophenyl)pyridazin-3-yl)octahydropyrrolo[3,4-b]pyrrole] | 12% | > 10000 nM | 36.4% | > 10000 nM | – | – | –
6 | Cc1cnn(C)c1-c1ccc(N2CCC3CN(CCC(C)(C)C)CC32)nn1 (stereo not drawn) [Compound 20, 1-(6-(1,4-dimethyl-1H-pyrazol-5-yl)pyridazin-3-yl)-5-(3,3-dimethylbutyl)octahydropyrrolo[3,4-b]pyrrole] | 8.8% | 2220 nM | 22.7% | > 10000 nM | – | – | –
7 | Cc1cnn(C)c1-c1ccc(N2CCC3CN(CC4CCOCC4)CC32)nn1 (stereo not drawn) [Compound 22, 1-(6-(1,4-dimethyl-1H-pyrazol-5-yl)pyridazin-3-yl)-5-((tetrahydro-2H-pyran-4-yl)methyl)octahydropyrrolo[3,4-b]pyrrole] | 36.1% | > 10000 nM | 69.7% | > 10000 nM | – | – | –
8 | CN1[C@@H]2C[C@@H](OC(=O)[C@H](CO)c3ccccc3)C[C@H]1[C@@H]1O[C@@H]12 [scopolamine] | – | – | – | – | ineffective in reducing catalepsy | completely reversed | dramatically reduced

Now from value to molecule, other results behind:

Row | remaining activity at 30 µM (Human M4) | IC50 (Human M4) | remaining activity at 30 µM (Rat M4) | IC50 (Rat M4) | Compound | reduction of haloperidol-induced catalepsy ([1]; M4 KO mice) | reversal of haloperidol-induced catalepsy ([1]; WT mice) | locomotor-activating effects (locomotor activity)
9 | 4.18% | 899 nM | 3.98% | 1710 nM | CCc1ccncc1-c1ccc(N2CCC3CN(CC45CC6CC(CC(C6)C4)C5)CC32)nn1 (stereo not drawn) [Compound 15, 5-(adamantan-1-ylmethyl)-1-(6-(4-ethylpyridin-3-yl)pyridazin-3-yl)octahydropyrrolo[3,4-b]pyrrole] | – | – | –
10 | 4.02% | 191 nM | 4.09% | 753 nM | Cc1nn(C)cc1-c1ccc(N2CCC3CN(CC45CC6CC(CC(C6)C4)C5)CC32)nn1 (stereo not drawn) [Compound 16, 5-(adamantan-1-ylmethyl)-1-(6-(1,3-dimethyl-1H-pyrazol-4-yl)pyridazin-3-yl)octahydropyrrolo[3,4-b]pyrrole] | – | – | –
11 | 3.18% | 129 nM | 4.41% | 365 nM | Cc1nn(C)c(C)c1-c1ccc(N2CCC3CN(CC45CC6CC(CC(C6)C4)C5)CC32)nn1 (stereo not drawn) [Compound 19, 5-(adamantan-1-ylmethyl)-1-(6-(1,3,5-trimethyl-1H-pyrazol-4-yl)pyridazin-3-yl)octahydropyrrolo[3,4-b]pyrrole] | – | – | –
12 | 4.08% | 147 nM | 3.71% | 601 nM | Cc1cnn(C)c1-c1ccc(N2CC[C@@H]3CN(CC45CC6CC(CC(C6)C4)C5)C[C@@H]32)nn1 [Compound 21, (3aR,6aR)-5-(adamantan-1-ylmethyl)-1-(6-(1,4-dimethyl-1H-pyrazol-5-yl)pyridazin-3-yl)octahydropyrrolo[3,4-b]pyrrole] | – | – | –
13 | 3.91% | 102 nM | 4.52% | 326 nM | Cc1cnn(C)c1-c1ccc(N2CC[C@H]3CN(CC45CC6CC(CC(C6)C4)C5)C[C@H]32)nn1 [Compound 23, (3aS,6aS)-5-(adamantan-1-ylmethyl)-1-(6-(1,4-dimethyl-1H-pyrazol-5-yl)pyridazin-3-yl)octahydropyrrolo[3,4-b]pyrrole] | – | – | –
